According to ChEMBL document CHEMBL4145486, “Design, synthesis and biological evaluation of LX2343 derivatives as neuroprotective agents for the treatment of Alzheimer's disease” (Eur J Med Chem, 2018):
Active and inactive are the calls of the source. No cut-off for these calls is given here.

How the values were obtained:
[1] = target: Amyloid-beta precursor protein (Homo sapiens) (UniProt P05067); experiment: Inhibition of STZ induced beta amyloid (unknown origin) deposition in HEK293 cells harboring APPSW mutant at 20 uM by ELISA; type: cell-based
[2] = test system: SH-SY5Y; experiment: Neuroprotective activity against STZ induced cell death of human SH-SY5Y cells after 24 hrs by MTT assay; type: functional, cell-based
[3] = target: Amyloid-beta precursor protein (Homo sapiens) (UniProt P05067); experiment: Inhibition of STZ induced beta amyloid clearance in human SH-SY5Y cells by ELISA; type: cell-based
[4] = test system: Mus musculus; experiment: Antialzheimer activity in APP1/PS1 transgenic mouse assessed as decrease in escape latencies at 30 mg/kg, ip administered 100 days prior to testing and measured at day 6 post continuous dosing by Morris water maze test; type: functional, organism-based
[5] = test system: Mus musculus; experiment: Toxicity in APP1/PS1 transgenic mouse assessed as change in body weight at 15 to 30 mg/kg, ip administered 100 days; type: organism-based; details: in vivo, 2400 h
[6] = test system: Mus musculus; experiment: Antialzheimer activity in APP1/PS1 transgenic mouse assessed as decrease in prolonged path length at 30 mg/kg, ip administered 100 days prior to testing and measured at day 6 post continuous dosing by Morris water maze test; type: functional, organism-based
[7] = test system: Mus musculus; experiment: Toxicity in APP1/PS1 transgenic mouse assessed as change in swimming speed at 15 to 30 mg/kg, ip administered 100 days; type: organism-based; details: in vivo, 2400 h
[8] = target: Microtubule-associated protein tau (Homo sapiens) (UniProt P10636); experiment: Inhibition of STZ induced tau hyperphosphorylation at ser396 residues in human SH-SY5Y cells at 20 uM by immunohistochemical assay; type: cell-based
[9] = test system: Mus musculus; experiment: Toxicity in APP1/PS1 transgenic mouse assessed as effect on liver function at 15 to 30 mg/kg, ip administered 100 days; type: organism-based; details: in vivo, 2400 h

Amyloid-beta precursor protein (Homo sapiens), sequence (P05067 whole entry): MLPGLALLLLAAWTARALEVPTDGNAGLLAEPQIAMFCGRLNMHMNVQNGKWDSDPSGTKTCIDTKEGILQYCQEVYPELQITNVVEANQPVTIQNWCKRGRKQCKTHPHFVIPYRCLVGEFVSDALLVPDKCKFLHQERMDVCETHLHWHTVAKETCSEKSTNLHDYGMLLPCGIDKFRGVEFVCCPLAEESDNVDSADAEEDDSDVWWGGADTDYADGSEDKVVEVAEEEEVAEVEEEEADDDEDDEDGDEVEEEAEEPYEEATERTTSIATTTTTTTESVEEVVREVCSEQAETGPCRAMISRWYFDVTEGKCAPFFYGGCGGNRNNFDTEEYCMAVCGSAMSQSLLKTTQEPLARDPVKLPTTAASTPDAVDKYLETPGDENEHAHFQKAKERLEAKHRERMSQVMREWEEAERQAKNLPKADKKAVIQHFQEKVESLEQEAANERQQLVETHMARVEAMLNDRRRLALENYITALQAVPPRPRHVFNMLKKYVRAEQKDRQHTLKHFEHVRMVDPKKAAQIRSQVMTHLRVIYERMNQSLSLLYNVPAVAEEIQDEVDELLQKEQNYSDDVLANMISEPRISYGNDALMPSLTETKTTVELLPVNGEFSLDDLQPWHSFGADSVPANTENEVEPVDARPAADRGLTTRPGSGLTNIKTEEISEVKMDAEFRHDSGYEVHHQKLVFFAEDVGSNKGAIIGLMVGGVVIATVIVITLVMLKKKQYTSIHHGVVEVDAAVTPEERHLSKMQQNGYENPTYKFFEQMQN
Microtubule-associated protein tau (Homo sapiens), sequence (P10636 whole entry): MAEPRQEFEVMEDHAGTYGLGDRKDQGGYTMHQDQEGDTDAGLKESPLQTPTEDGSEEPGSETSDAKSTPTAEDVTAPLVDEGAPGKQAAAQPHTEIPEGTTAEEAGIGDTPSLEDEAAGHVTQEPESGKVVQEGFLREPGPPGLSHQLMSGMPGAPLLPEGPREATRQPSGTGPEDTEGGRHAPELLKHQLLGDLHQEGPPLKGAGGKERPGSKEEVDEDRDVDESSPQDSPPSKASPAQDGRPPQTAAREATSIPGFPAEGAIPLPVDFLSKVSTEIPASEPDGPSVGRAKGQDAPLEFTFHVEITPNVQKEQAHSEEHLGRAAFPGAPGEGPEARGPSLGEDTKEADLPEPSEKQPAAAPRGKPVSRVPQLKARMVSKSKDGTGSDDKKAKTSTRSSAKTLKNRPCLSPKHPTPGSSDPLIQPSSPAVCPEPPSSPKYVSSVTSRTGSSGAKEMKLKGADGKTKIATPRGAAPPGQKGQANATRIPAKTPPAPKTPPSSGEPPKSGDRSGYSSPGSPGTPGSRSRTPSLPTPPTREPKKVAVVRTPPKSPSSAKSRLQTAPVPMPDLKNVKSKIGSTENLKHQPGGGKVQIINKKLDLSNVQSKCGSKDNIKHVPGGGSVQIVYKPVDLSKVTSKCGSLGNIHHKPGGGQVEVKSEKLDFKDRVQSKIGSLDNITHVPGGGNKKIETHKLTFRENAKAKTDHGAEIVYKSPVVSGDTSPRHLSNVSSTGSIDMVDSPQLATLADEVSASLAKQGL

| SMILES | EC50 [2] [µM] | other results |
| --- | --- | --- |
| COc1ccc(Cl)cc1N(CC(=O)Nc1cccc2c3ccccc3n(C)c12)S(=O)(=O)c1ccccc1 | 3.18 | inhibition [1]: Active; inhibition [3]: Active |
| COc1ccc(Cl)cc1N(CC(=O)NC12CC3CC(C)(CC(C)(C3)C1)C2)S(=O)(=O)c1ccc([N+](=O)[O-])cc1 | > 20 |  |
| COc1ccc(Cl)cc1N(CC(=O)Nc1cccc2ccccc12)S(=O)(=O)c1ccccc1 | 17.4 |  |
| CC12CC3CC(C)(C1)CC(NC(=O)CN(c1cccc(Cl)c1)S(=O)(=O)c1ccccc1)(C3)C2 | 12.3 |  |
| COc1ccc(NC(=O)CN(c2cc(Cl)ccc2OC)S(=O)(=O)c2ccccc2)cc1 | 16.2 |  |
| CCCNC(=O)CN(c1cc(Cl)ccc1OC)S(=O)(=O)c1ccccc1 | > 20 |  |
| Cc1c(Cl)cccc1N(CC(=O)NC12CC3CC(C)(CC(C)(C3)C1)C2)S(=O)(=O)c1ccccc1 | > 20 |  |
| COc1ccc(Cl)cc1N(CC(=O)Nc1ccc([N+](=O)[O-])cc1)S(=O)(=O)c1ccccc1 | 8.21 |  |
| COc1ccc(Cl)cc1NC(=O)CN(c1cc(Cl)ccc1OC)S(=O)(=O)c1ccccc1 | > 20 |  |
| CCn1c2ccccc2c2cc(NC(=O)CN(c3cc(Cl)ccc3OC)S(=O)(=O)c3ccccc3)ccc21 | 0.25 | inhibition [1]: Active; inhibition [3]: Active |
| COc1ccc(Cl)cc1N(CC(=O)NC12CC3CC(C)(CC(C)(C3)C1)C2)S(=O)(=O)c1ccc(C)cc1 | > 20 |  |
| COc1ccc(Cl)cc1N(CC(=O)Nc1ccc(Cl)cc1)S(=O)(=O)c1ccccc1 | > 20 |  |
| COc1ccc(Cl)cc1N(CC(=O)N1CCCCC1)S(=O)(=O)c1ccccc1 | 14.5 | inhibition [1]: Active |
| COc1ccccc1NC(=O)CN(c1cc(Cl)ccc1OC)S(=O)(=O)c1ccccc1 | 15.5 |  |
| COc1ccc(NC(=O)CN(c2cc(Cl)ccc2OC)S(=O)(=O)c2ccccc2)cc1OC | > 20 |  |
| COc1ccc(Cl)cc1N(CC(=O)Nc1ccc2c(c1)c1ccccc1n2C)S(=O)(=O)c1ccccc1 | 1.32 |  |
| COc1ccc(Cl)cc1N(CC(=O)Nc1ccc2[nH]c3ccccc3c2c1)S(=O)(=O)c1ccccc1 | 2.75 |  |
| COc1ccc(Cl)cc1N(CC(=O)Nc1cccc2c1[nH]c1ccccc12)S(=O)(=O)c1ccccc1 | 6.56 |  |

| SMILES | EC50 [2] [µM] | other results |
| --- | --- | --- |
| CC12CC3CC(C)(C1)CC(NC(=O)CN(c1ccccc1Cl)S(=O)(=O)c1ccccc1)(C3)C2 | 16.1 |  |
| Cc1ccc(N(CC(=O)NC23CC4CC(C)(CC(C)(C4)C2)C3)S(=O)(=O)c2ccccc2)cc1Cl | 8.86 |  |
| COc1cccc(NC(=O)CN(c2cc(Cl)ccc2OC)S(=O)(=O)c2ccccc2)c1 | 17.6 |  |
| COc1ccc(Cl)cc1N(CC(=O)NC12CC3CC(C)(CC(C)(C3)C1)C2)C(=O)c1ccccc1 | > 20 |  |
| COc1ccc(Cl)cc1N(CC(=O)NC12CC3CC(C)(CC(C)(C3)C1)C2)S(=O)(=O)c1ccccc1 | 0.22 | inhibition [1]: Active; Activity [4]: Active; Activity [5]: Non-Toxic; Activity [6]: Active; inhibition [3]: Active; Activity [7]: Non-Toxic; inhibition [8]: Active; Activity [9]: Non-Toxic |
| COc1ccc(Cl)cc1N(CC(=O)Nc1ccc(C(F)(F)F)cc1)S(=O)(=O)c1ccccc1 | 3.75 | inhibition [1]: Active; inhibition [3]: Active; inhibition [8]: Active |
| CCn1ccc2cc(NC(=O)CN(c3cc(Cl)ccc3OC)S(=O)(=O)c3ccccc3)ccc21 | 2.22 |  |
| CC12CC3CC(C)(C1)CC(NC(=O)CN(c1ccc(Cl)cc1)S(=O)(=O)c1ccccc1)(C3)C2 | > 20 |  |
| COc1ccc(Cl)cc1N(CC(=O)Nc1ccccc1)S(=O)(=O)c1ccccc1 | > 20 |  |
| COc1ccc(Cl)cc1N(CC(=O)N(C1CCCCC1)C1CCCCC1)S(=O)(=O)c1ccccc1 | 14.3 |  |
| CC12CC3CC(C)(C1)CC(NC(=O)CN(C1CCCCC1)S(=O)(=O)c1ccccc1)(C3)C2 | > 20 |  |
| COc1ccc(Cl)cc1N(CC(=O)N1CCc2ccccc21)S(=O)(=O)c1ccccc1 | > 20 |  |
| COc1ccc(Cl)cc1N(CC(=O)NC1CCCCC1)S(=O)(=O)c1ccccc1 | 17.6 |  |
| COc1ccc(CNC(=O)CN(c2cc(Cl)ccc2OC)S(=O)(=O)c2ccccc2)cc1 | > 20 |  |
| COc1ccc(Cl)cc1N(CC(=O)NC12CC3CC(C)(CC(C)(C3)C1)C2)S(=O)(=O)c1ccc(Cl)cc1 | > 20 |  |
| CCN(CC)C(=O)CN(c1cc(Cl)ccc1OC)S(=O)(=O)c1ccccc1 | > 20 |  |
| CC12CC3CC(C)(C1)CC(NC(=O)CN(c1ccccc1)S(=O)(=O)c1ccccc1)(C3)C2 | > 20 |  |
